Laboratory results taken from US20250288584A1, “COMBINATIONS COMPRISING POSITIVE ALLOSTERIC MODULATORS OR ORTHOSTERIC AGONISTS OF METABOTROPIC GLUTAMATERGIC RECEPTOR SUBTYPE 2 AND THEIR USE” (JANSSEN PHARMACEUTICA NV, priority 2014, published 2025).
Read-outs that look alike come from different tables or passages of the source. One block for each compound: values may come before it.

How the values were obtained:
human mGlu2 receptor = target: T1, human mGlu2 receptor (Homo sapiens, UniProt Q14416); assay: [35S]GTPγS binding assay, mGluR2 PAM; type: biochemical; conditions: for EC50 / GTPγS-hmGluR2 PAM pEC50: in presence of EC20 glutamate; for EC50: read-out: GTPγS-hmGluR2 PAM pEC50 (converted)
T1 construct: expressed in transfected cells; host or cells: CHO cells
Protocol: The [^35S]GTPγS binding assay is a functional membrane-based assay used to study G-protein coupled receptor (GPCR) function whereby incorporation of a non-hydrolysable form of GTP, [^35S]GTPγS (guanosine 5′-triphosphate, labelled with […] ^35S), is measured.
Cells were then collected by scraping in PBS and cell suspension was centrifuged (10 min at 4000 RPM in benchtop centrifuge). Supernatant was discarded and pellet gently resuspended in 50 mM Tris-HCl, pH 7.4 by mixing with a vortex and pipetting up and down. The suspension was centrifuged at 16,000 RPM (Sorvall RC-5C plus rotor SS-34) for 10 minutes and the supernatant discarded. The pellet was homogenized in 5 mM Tris-HCl, pH 7.4 using an ultra-turrax homogenizer and centrifuged again (18,000 RPM, 20 min, 4° C.). The final pellet was resuspended in 50 mM Tris-HCl, pH 7.4 and stored at-80° C. in appropriate aliquots before use. Protein concentration was determined by the Bradford method (Bio-Rad, USA) with bovine serum albumin as standard.
Measurement of mGluR2 positive allosteric modulatory activity of test compounds was performed as follows. Test compounds and glutamate were diluted in assay buffer containing 10 mM HEPES acid, 10 mM HEPES salt, pH 7.4, 100 mM NaCl, 3 mM MgCl2 and 10 μM GDP. Human mGlu2 receptor-containing membranes were thawed on ice and diluted in assay buffer supplemented with 14 μg/ml saponin. Membranes were pre-incubated with compound alone or together with a predefined (˜EC20) concentration of glutamate (PAM assay) for 30 min at 30° C. After addition of [^35S] GTPγS (f.c. 0.1 nM), assay mixtures were shaken briefly and further incubated to allow [^35S] GTPγS incorporation on activation (30 minutes, 30° C.). Final assay mixtures contained 7 μg of membrane protein in 10 mM HEPES acid, 10 mM HEPES salt, pH 7.4, 100 mM NaCl, 3 mM MgCl2, 10 µM GDP and 2 μg/ml saponin. Total reaction volume was 200 μl. Reactions were terminated by rapid filtration through Unifilter-96 GF/B plates (Perkin Elmer, Massachusetts, USA) using a 96-well filtermate universal harvester. Filters were washed 6 times with ice-cold 10 mM NaH2PO4/10 mM Na2HPO4, pH 7.4. Filters were then air-dried, and 40 μl of liquid scintillation cocktail (Microscint-O) was added to each well. Membrane-bound radioactivity was counted in a Microplate Scintillation and Luminescence Counter from Perkin Elmer.
The concentration-response curves of representative compounds of the present invention-obtained in the presence of EC20 of mGluR2 agonist glutamate to determine positive allosteric modulation (PAM)—were generated using the Lexis software interface (developed at J&J). Data were calculated as % of the control glutamate response, defined as the maximal response that is generated upon addition of glutamate alone. Sigmoid concentration-response curves plotting these percentages versus the log concentration of the test compound were analyzed using non-linear regression analysis. The concentration producing half-maximal effect is then calculated as EC50. The pEC50 values below were calculated as the −log EC50, when the EC50 is expressed in M. Emax is defined as relative maximal effect (i.e. maximal % effect relative to the control glutamate response).

[1] = test system: 6 Hz (44 mA) psychomotor seizures; assay: 6 Hz psychomotor seizure test, 44 mA (alone, combination with LEV, isobolographic study); type: in vivo, mice; conditions: Mus musculus, 6 Hz (44 mA); [CAS 1092453-15-0] 20 mg/kg, alone; read-out: # protected/# tested (converted)
Protocol: Test compounds were administered using an optimal fluid volume to body fluid ratio. Test compounds were administered to mice in a volume of 0.01 mL/g of body weight (White H. S., et al., General Principles: Experimental selection, quantification, and evaluation of antiepileptic drugs, in Antiepileptic Drugs, Fourth Edition, […], and B. S. Meldrum, Editors. 1995, Raven Press, Ltd.: New York, pp. 99-110). For subcutaneous (s.c.) administration, the test compounds were administered into a loose fold of skin along the back of the animal except compound 6-b, which was administered orally (p.o). […] The animals were maintained on an adequate diet (Prolab RMH 3000) and allowed free access to food and water, except during the short time they were removed from their cage for testing. Animals newly received in the laboratory were allowed sufficient time to correct for possible food and water restriction incurred during transit before being employed in testing. All mice were housed in plastic cages in specially constructed rooms with controlled humidity, exchange of air and controlled lighting (12 hours on-12 hours off). The animals were housed, fed, and handled in a manner consistent with the recommendations in the National Council Publication, “Guide for the Care and Use of Laboratory Animals”. In the determination of an ED50 or TD50 for each test compound, the first dose administered is usually the same dose as that used in a successful TPE determination. […] Third and fourth doses were selected to produce an evenly spaced dose response line. […] The 6 Hz seizure test is used as a model of pharmacoresistant limbic seizures. […] Focal seizures were induced in mice via corneal stimulation (6 Hz, 0.2 msec rectangular pulse, 3 sec duration; Barton et al. 2001). Mice were tested at either 32 mA or 44 mA. […] The seizures that arise from corneal stimulation in this assay are characterized by a minimal clonic phase followed by stereotyped automatistic behaviors including stun, forelimb clonus, twitching of the vibrissae, and Straub-tail. Animals not displaying these behaviors were considered protected. […] In addition to recording the efficacy and toxicity data for these compounds alone or in combination, both plasma and brain samples were collected from each of the groups for pharmacokinetic/pharmacokinetic analysis. No pharmacokinetic interaction was observed based on compound levels in the plasma and brain samples (data not shown). Isobolographic studies were conducted for the combined administration of Co. […] Studies were conducted according to previously described methods (Madsen et al. 2011). Initial ED50 values were determined for both Co. […] Co. […] Doses used were proportional to calculated ED50 values. […] Experimental treatment doses (see Table 4) were based on theoretical values and adjusted according to observed effects. Experimentally determined ED50 (+SEM) values for each fixed dose-ratio combination were compared to the theoretical values (t-test) for statistical purposes. […] Subsequently, the experimental combined doses were determined for the same paradigms in the 6 Hz seizure test (Table 4 below).

[2] = Minimal motor impairment (rotarod); type: in vivo, mice; conditions: [CAS 1092453-15-0] 20 mg/kg, alone
Protocol: Acute MMI was assessed by a combination of direct observations of the animal for overt symptoms of the animal's neurological or muscular function. In mice, the rotarod procedure was used to disclose minimal muscular or neurological impairment. When a mouse is placed on a rod that rotates at a speed of 6 rpm, the animal can maintain its equilibrium for long periods of time. The animal was considered toxic if it fell off this rotating rod three times during a 1 min period.
In the determination of an ED50 or TD50 for each test compound, the first dose administered is usually the same dose as that used in a successful TPE determination.
If the initial dose employed was effective or toxic in more than 50% of animals, the next dose would be one-half that of the initial dose; if the initial dose was effective or toxic in less than 50% of animals, the following dose would be twice that of the initial dose. Third and fourth doses were selected to produce an evenly spaced dose response line. There should be a minimum of 4 points either including or lying between 0 and 100%.

[3] = maximal % effect relative to control glutamate response, EC20 glutamate, read-out: GTPγS-hmGluR2 PAM Emax

T1 sequence (Q14416 19-872): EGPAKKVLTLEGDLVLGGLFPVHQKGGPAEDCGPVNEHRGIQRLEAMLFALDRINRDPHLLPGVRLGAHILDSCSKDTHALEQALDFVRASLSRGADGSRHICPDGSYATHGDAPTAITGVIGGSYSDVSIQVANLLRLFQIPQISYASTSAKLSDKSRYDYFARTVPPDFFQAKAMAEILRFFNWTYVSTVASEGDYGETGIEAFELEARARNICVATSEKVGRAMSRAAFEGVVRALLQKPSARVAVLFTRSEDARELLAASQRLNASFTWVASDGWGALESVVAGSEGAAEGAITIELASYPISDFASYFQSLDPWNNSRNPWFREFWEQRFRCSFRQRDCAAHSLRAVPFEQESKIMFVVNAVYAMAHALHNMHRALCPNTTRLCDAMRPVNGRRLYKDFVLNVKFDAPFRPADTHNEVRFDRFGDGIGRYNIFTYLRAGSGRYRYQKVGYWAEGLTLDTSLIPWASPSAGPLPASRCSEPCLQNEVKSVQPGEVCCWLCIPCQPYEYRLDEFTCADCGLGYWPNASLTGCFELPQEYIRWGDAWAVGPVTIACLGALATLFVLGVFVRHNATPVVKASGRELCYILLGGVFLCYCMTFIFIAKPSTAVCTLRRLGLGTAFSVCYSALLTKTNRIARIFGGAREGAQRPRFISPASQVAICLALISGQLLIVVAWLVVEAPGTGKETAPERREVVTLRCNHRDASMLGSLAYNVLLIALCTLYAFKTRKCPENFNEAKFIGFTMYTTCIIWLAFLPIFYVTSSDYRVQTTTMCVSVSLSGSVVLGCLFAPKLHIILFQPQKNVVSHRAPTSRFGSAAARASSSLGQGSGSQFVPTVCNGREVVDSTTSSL

Structure (SMILES): Fc1cnc(N2CCN(Cc3ccn4c(CC5CC5)nnc4c3C(F)(F)F)CC2)c(F)c1 [Co. No. 13]
EC50 (human mGlu2 receptor): 126 nM | Emax (human mGlu2 receptor; [3]): 278%

Structure (SMILES): O=c1c(Cl)c(N2CCC(c3ccccc3Cl)CC2)ccn1CC1CC1 [Co. No. 15-a]
GTPγS-hmGluR2 PAM pEC50 (human mGlu2 receptor): 7 | Emax (human mGlu2 receptor; [3]): 253%

Structure (SMILES): C[C@H](Oc1c(F)cc(F)cc1F)c1ccn2c(CC3CC3)nnc2c1C(F)(F)F [Co. No. 15-b, 3-(Cyclopropylmethyl)-8-(trifluoromethyl)-7-[(1S)-1-(2,4,6-trifluorophenoxy)ethyl][1,2,4]triazolo[4,3-a]pyridine]
Emax (human mGlu2 receptor; read-out: GTPγS-hmGluR2 PAM Emax, maximal % effect relative to control glutamate response, EC20 glutamate): 293%

Structure (SMILES): O=c1c(Cl)c(N2CCC(OCCF)(c3ccccc3)CC2)ccn1CC1CC1 [Co. No. 20-a]
Emax (human mGlu2 receptor; [3]): 243%

Structure (SMILES): O=c1c(Cl)c(N2CCC(CF)(c3ccccc3)CC2)ccn1CC1CC1 [Co. No. 21-a]
Emax (human mGlu2 receptor; [3]): 207%

Structure (SMILES): CC(C)CCn1ccc(N2CCC(F)(c3ccccc3)CC2)c(Cl)c1=O [Co. No. 23-a]
GTPγS-hmGluR2 PAM pEC50 (human mGlu2 receptor): 6.58 | Emax (human mGlu2 receptor; [3]): 203%

Structure (SMILES): O=c1c(Cl)c(N2CCC(F)(c3ccccc3)CC2)ccn1CCC1CC1 [Co. No. 26-a]
EC50 (human mGlu2 receptor): 316 nM | Emax (human mGlu2 receptor; [3]): 248%

Structure (SMILES): CCCCn1ccc(N2CCC(c3ccc(C(C)(C)O)cc3F)CC2)c(Cl)c1=O [Co. No. 29-a]
EC50 (human mGlu2 receptor): 107 nM | Emax (human mGlu2 receptor; [3]): 317%

Structure (SMILES): CCCc1nnc2c(C(F)(F)F)c(C(C)Oc3ccc(F)cc3F)ccn12 (stereo not drawn) [Co. No. 30-b, 7-[1-(2,4-Difluorophenoxy)ethyl]-3-propyl-8-(trifluoromethyl)[1,2,4]triazolo[4,3-a]pyridine]
Emax (human mGlu2 receptor; [3]): 227%

Structure (SMILES): CCCCn1ccc(N2CCC3(CC2)COc2ccccc23)c(Cl)c1=O [Co. No. 33-a]
EC50 (human mGlu2 receptor): 263 nM | Emax (human mGlu2 receptor; [3]): 362%

Structure (SMILES): Cc1cc(-c2nc(CN3CCNCC3)no2)cc2c1C(=O)N(Cc1ccc(OC(F)(F)F)cc1)C2 [[CAS 1092453-15-0]]
Emax (human mGlu2 receptor; GTPγS assay, read-out: Emax): 197% | responders at 20 mg/kg [1]: 0% | # rotarod motor impairment/# tested [2]: 0/8

Results, then the compound that gave them:

Emax (human mGlu2 receptor; [3]): 178%
Structure (SMILES): COc1cc(F)ccc1O[C@@H](C)c1ccn2c(CC3CC3)nnc2c1C(F)(F)F [Co. No. 12-b, 3-(Cyclopropylmethyl)-7-[(1S)-1-(4-fluoro-2-methoxyphenoxy)ethyl]-8-(trifluoromethyl)[1,2,4]triazolo[4,3-a]pyridine]

Emax (human mGlu2 receptor; [3]): 261%
Structure (SMILES): CC1(C)OC2(CCN(c3ccn4c(CC(F)(F)F)nnc4c3Cl)CC2)c2ccccc21 [Co. No. 12]

EC50 (human mGlu2 receptor): 214 nM | Emax (human mGlu2 receptor; [3]): 212%
Structure (SMILES): O=c1c(Cl)c(N2CCC(c3ccc(N4CCOCC4)cc3)CC2)ccn1CC1CC1 [Co. No. 13-a]

Emax (human mGlu2 receptor; [3]): 280%
Structure (SMILES): Cc1ccc(O[C@@H](C)c2ccn3c(CC4CC4)nnc3c2C(F)(F)F)c(Cl)c1 [Co. No. 13-b, 7-[(1S)-1-(2-Chloro-4-methylphenoxy)ethyl]-3-(cyclopropylmethyl)-8-(trifluoromethyl)[1,2,4]triazolo[4,3-a]pyridine]

GTPγS-hmGluR2 PAM pEC50 (human mGlu2 receptor): 6.92 | Emax (human mGlu2 receptor; [3]): 259%
Structure (SMILES): O=c1c(Cl)c(N2CCC(c3ccc(F)cc3F)CC2)ccn1CC1CC1 [Co. No. 14-a]

Emax (human mGlu2 receptor; [3]): 281%
Structure (SMILES): Cc1cc(F)ccc1O[C@@H](C)c1ccn2c(CC3CC3)nnc2c1C(F)(F)F [Co. No. 14-b, 3-(Cyclopropylmethyl)-7-[(1S)-1-(4-fluoro-2-methylphenoxy)ethyl]-8-(trifluoromethyl)[1,2,4]triazolo[4,3-a]pyridine]

GTPγS-hmGluR2 PAM pEC50 (human mGlu2 receptor): 7.12 | Emax (human mGlu2 receptor; [3]): 223%
Structure (SMILES): O=c1c(Cl)c(N2CCC(c3cccc(C(F)(F)F)c3)CC2)ccn1CC1CC1 [Co. No. 16-a]

EC50 (human mGlu2 receptor): 288 nM | Emax (human mGlu2 receptor; [3]): 261%
Structure (SMILES): O=c1c(Cl)c(N2CCC(F)(c3ccccc3)CC2)ccn1CC1CC1 [Co. No. 17-a]

GTPγS-hmGluR2 PAM pEC50 (human mGlu2 receptor): 6.71 | Emax (human mGlu2 receptor; [3]): 240%
Structure (SMILES): CC(C)Cn1ccc(N2CCC(c3ccccc3)CC2)c(Cl)c1=O [Co. No. 19-a]

Emax (human mGlu2 receptor; [3]): 259%
Structure (SMILES): CCCCn1ccc(N2CCC(CO)(c3ccccc3)CC2)c(Cl)c1=O [Co. No. 22-a]

GTPγS-hmGluR2 PAM pEC50 (human mGlu2 receptor): 6.91 | Emax (human mGlu2 receptor; [3]): 258%
Structure (SMILES): CC(C)CCn1ccc(N2CCC(c3ccc(F)cc3F)CC2)c(Cl)c1=O [Co. No. 24-a]

EC50 (human mGlu2 receptor): 331 nM | Emax (human mGlu2 receptor; [3]): 284%
Structure (SMILES): CCCCn1ccc(N2CCC(c3ccc(C(C)(C)O)cc3)CC2)c(Cl)c1=O [Co. No. 27-a]

EC50 (human mGlu2 receptor): 110 nM | Emax (human mGlu2 receptor; [3]): 297%
Structure (SMILES): CCCCn1ccc(N2CCC(c3ccccc3C(C)(C)O)CC2)c(Cl)c1=O [Co. No. 28-a]

EC50 (human mGlu2 receptor): 219 nM | Emax (human mGlu2 receptor; [3]): 347%
Structure (SMILES): CCCCn1ccc(N2CCC3(CC2)OCc2ccccc23)c(Cl)c1=O [Co. No. 32-a]
